Reference: ChEMBL document CHEMBL1128639, “Mechanism of inhibition of poly(ADP-ribose) glycohydrolase by adenosine diphosphate (hydroxymethyl)pyrrolidinediol” (J Med Chem, 1995)

Assays:
[1] = target: Poly(ADP-ribose) glycohydrolase (Bos taurus) (UniProt O02776); assay: Kid describes the approach of hyperbolic function to its new limiting value as [I] increases, for the 1/V vs [I] replot.
[2] = target: Poly(ADP-ribose) glycohydrolase (Bos taurus) (UniProt O02776); assay: Inhibitor dissociation constant for the 1/V vs [I] replot.
[3] = target: Poly(ADP-ribose) glycohydrolase (Bos taurus) (UniProt O02776); assay: Kid describes the approach of hyperbolic function to its new limiting value as [I] increases, for the KM/V vs [I] replot.
[4] = target: Poly(ADP-ribose) glycohydrolase (Bos taurus) (UniProt O02776); assay: Inhibitor dissociation constant was determined by the analysis of the slope versus [inhibitor] replot.e.K
[5] = Compound was tested for its inhibitory activity against venom NAD glycohydrolase; design: species or system Bungarus fasciatus
[6] = Compound was tested for the inhibitor activity against NAD glycohydrolase.; design: species or system Bungarus fasciatus

Poly(ADP-ribose) glycohydrolase (Bos taurus), sequence (O02776 whole entry): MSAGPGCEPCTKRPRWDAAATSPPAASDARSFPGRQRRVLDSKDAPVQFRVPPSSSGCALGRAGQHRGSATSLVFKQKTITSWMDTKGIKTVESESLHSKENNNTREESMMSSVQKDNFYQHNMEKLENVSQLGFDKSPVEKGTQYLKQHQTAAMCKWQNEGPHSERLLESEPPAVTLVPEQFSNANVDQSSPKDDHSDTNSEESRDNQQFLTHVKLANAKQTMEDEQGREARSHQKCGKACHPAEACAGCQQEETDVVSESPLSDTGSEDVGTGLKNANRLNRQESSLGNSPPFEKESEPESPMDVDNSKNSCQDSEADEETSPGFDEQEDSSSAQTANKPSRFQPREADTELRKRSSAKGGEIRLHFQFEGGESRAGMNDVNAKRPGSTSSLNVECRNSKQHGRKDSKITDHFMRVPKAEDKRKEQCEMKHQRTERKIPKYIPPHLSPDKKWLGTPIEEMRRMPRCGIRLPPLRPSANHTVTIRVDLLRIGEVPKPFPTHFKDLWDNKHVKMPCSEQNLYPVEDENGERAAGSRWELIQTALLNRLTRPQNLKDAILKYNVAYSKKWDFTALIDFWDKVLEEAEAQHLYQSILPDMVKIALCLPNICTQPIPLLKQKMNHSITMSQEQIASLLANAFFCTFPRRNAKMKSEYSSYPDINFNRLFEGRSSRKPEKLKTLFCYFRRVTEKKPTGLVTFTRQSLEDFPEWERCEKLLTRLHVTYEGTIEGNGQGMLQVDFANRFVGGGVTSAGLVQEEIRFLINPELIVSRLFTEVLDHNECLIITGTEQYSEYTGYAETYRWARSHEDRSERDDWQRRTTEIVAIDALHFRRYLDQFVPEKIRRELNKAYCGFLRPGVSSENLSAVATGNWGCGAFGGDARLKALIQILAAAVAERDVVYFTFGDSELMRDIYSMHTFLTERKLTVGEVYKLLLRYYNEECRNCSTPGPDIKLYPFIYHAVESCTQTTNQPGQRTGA

Q: With `Nc1ncnc2c1ncn2[C@@H]1O[C@H](COP(=O)(O)OP(=O)(O)OC[C@H]2NC[C@H](O)[C@@H]2O)[C@@H](O)[C@H]1O` [ADENOSINE DIPHOSPHATE (HYDROXYMETHYL)PYRROLIDINEDIOL] as the compound, how does the Kid [1] read?
A: 0.21 µM

Q: And the Kin [2]?
A: 0.052 µM

Q: And the Kid [3]?
A: 0.26 µM

Q: What about the Kin [4] of the same compound?
A: 0.08 µM

Q: What about the IC50 [5] of the same compound?
A: 260 µM

Q: What about the Ki [6] of the same compound?
A: 94 µM
